Experimental findings from patent US8278320B2, “Azabicyclo[2.2.1]heptane compounds as alpha-7 nicotinic acetylcholine receptor ligands” (Bristol-Myers Squibb Company, priority 2009, dated 2012) are described below.

This assay concerns the target α-7 nicotinic ACh receptor ion channel expressed in mammalian HEK 293 cells (Rattus norvegicus, UniProt Q05941). Briefly: Ca2+-sensitive, fluorescence-based FLIPR assay for α-7 nicotinic acetylcholine receptor channel function (agonist activity). Format: cell-based. More on the design: expressed in transfected cells. To be noted: Ca2+ flux, HEK-293 cells, Fluo-4. As for the experimental part: I) α7 Nicotinic Acetycholine Receptor Binding. Membranes were prepared for binding using HEK293 cells stably expressing the rat α7 nicotinic acetycholine receptor (rat α7 nAChR). Cells were homogenized at 4° C. in hypotonic lysis buffer consisting of 10 mM Tris (pH 7.4), 5 mM EDTA and protease inhibitors and centrifuged at 32000×g for 20 minutes. The pellet was washed once in membrane wash buffer consisting of 50 mM Tris (pH 7.4), 1 mM EDTA and protease inhibitors and centrifuged at 32000×g for 20 minutes. This pellet was then resuspended in assay buffer consisting 50 mM KH2PO4 (pH 7.4 at 25° C.), 1 mM EDTA, 0.005% Triton-X 100 and 0.1% (v/v) Sigma Protease Inhibitor Cocktail. Aliquots were then frozen in dry ice/ethanol and kept at −80° C. until the day of the assay. II) A Ca^2+-Sensitive, Fluorescence-Based Assay α-7 for Nicotinic Acetylcholine Receptor Channel Function In Mammalian Cells (“FLIPR”). Summary: Lead compounds are evaluated for agonist activity at α-7, α3β4, α4αβ2, and α1β1δ1ε sub-types of nicotinic ACh receptor ion channels expressed in mammalian HEK 293 cells. Agonist potency and efficacy values are determined from kinetic fluorescence Ca^2+ influx measurements made using a 384 well FLIPR (Fluorescence Image Plate Reader). […] In this assay, channel expressing HEK cell lines seeded in 384 well assay plates are loaded with a membrane permeant fluorescent Ca^2+ indicator dye, whose 510 nm green emission signal increases in response to elevation of intracellular Ca^2+ concentration. The basal fluorescence from the cells is monitored in real time, followed by the acute addition of test compounds.
Materials and Methods: Reagents: The acetomethoxy (AM) ester of the Ca^2+ indicator dye Fluo-4 was obtained from InVitrogen, (Carlsbad, Calif.). Acetylcholine and all buffer constituents were purchased from Sigma Chemical Company, St. Louis, Mo. G418 and Minimal Essential Medium were purchased from InVitrogen Life Technologies, Carlsbad, Calif. Fetal bovine serum was purchased from (InVitrogen, Carlsbad, Calif.).
Cell Culture: HEK-293 cells were grown in Minimal Essential Medium containing 10% (v/v) fetal bovine serum at 37° C. in a 5% CO2 incubator. HEK-293 cells stably expressing the ion channels were grown in the same medium with the addition of 500 μg/ml G418.
Ca^2+ flux assays of Ca^2+ channels expressed in HEK-293 cells: HEK-293 cells expressing the ion channels of interest were plated in 384 well, black-walled, clear-bottomed, poly-D-lysine coated plates at a density of ˜20,000 cells/well in 20 μl of Minimal Essential Medium containing 10% (v/v) fetal bovine serum and incubated for 2 days at 29° C. in a 5% CO2 incubator. Prior to assay, cells were loaded with the Fluo-4 AM ester. […] Dye loading was allowed to proceed for 90 minutes at room temperature at which time the dye loading solution was removed and replaced with 40 μl/well of Hanks buffer. Cells loaded with dye were loaded onto a FLIPR384 (Molecular Devices, Sunnyvale, Calif.). Fluo-4 dye was excited using the 488 nm line of an argon laser. Emission was filtered using a 540+/−30 nm bandpass filter. For evaluation of the effects of test compounds using the Ca^2+ flux assay, compounds to be tested were provided in assay ready plates. For nicotinic receptor ion channel expressing cells, the assay was initiated by the addition of 20 μl/well of Hanks buffer containing test compounds. For all assays, data were collected at 1 Hz for 10 seconds (baseline), at which time the compound containing stimulus buffers are added, and further measurements collected at 0.33 Hz for 3 min.
Data Analysis: The statistical robustness of the nicotinic receptor Ca^2+ flux assays is determined from blanks and totals wells. […] The raw fluorescence units data files generated on the FLIPR plate reader are automatically exported and processed by in-house data analysis tools.
A general note: A change in cytosolic calcium serves as a functional read-out for many receptors and channels.

Setting [1] is: agonist potency class, read-out: FLIPR α7 activity rating (EC50).
Setting [2] is: agonist potency, read-out: FLIPR α7-HI (EC50).
The mark [3] stands for this setting: FLIPR α7-HI (EC50, nM), agonist potency.
[4] abbreviates: FLIPR α7 activity rating (EC50, nM), agonist potency class.

pEC50: −log10 of the molar value. Like-named read-outs stand apart in the source and are kept apart here.

Chain of α-7 nicotinic ACh receptor ion channel expressed in mammalian HEK 293 cells (Q05941 23-502): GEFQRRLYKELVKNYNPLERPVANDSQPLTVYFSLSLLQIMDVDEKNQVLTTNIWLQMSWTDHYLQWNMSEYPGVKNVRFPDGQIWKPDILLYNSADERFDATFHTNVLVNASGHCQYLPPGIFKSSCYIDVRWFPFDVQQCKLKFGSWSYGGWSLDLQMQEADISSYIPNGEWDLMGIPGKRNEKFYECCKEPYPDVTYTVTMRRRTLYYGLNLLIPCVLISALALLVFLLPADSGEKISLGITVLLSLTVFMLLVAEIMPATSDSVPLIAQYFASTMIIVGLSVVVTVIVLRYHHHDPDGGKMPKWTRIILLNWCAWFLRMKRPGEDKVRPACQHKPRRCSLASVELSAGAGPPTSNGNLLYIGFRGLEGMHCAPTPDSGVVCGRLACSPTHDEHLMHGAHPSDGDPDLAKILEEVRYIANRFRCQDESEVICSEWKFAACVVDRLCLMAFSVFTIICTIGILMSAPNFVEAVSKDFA

The term pEC50 denotes −log10 of the EC50, conventionally taken in molar units. Regarding `COc1ccc2nc(NC3=NC[C@@]4(C[N@]5CC[C@H]4C5)O3)sc2c1` (relative stereo) [Example 1, (3R*,4S*)—N-(6-Methoxybenzo[d]thiazol-2-yl)-4′H-1-azaspiro[bicyclo[2.2.1]heptane-3,5′-oxazol]-2′-amine], the pEC50 by setting is: under setting [1], 4.00 to 6.00; under setting [2], 6.39.

As to `COc1ccc2nc(NC3=NC[C@@]4(C[N@@]5CC[C@@H]4C5)O3)sc2c1` (relative stereo) [Example 2, (3R*,4R*)—N-(6-Methoxybenzo[d]thiazol-2-yl)-4′H-1-azaspiro[bicyclo[2.2.1]heptane-3,5′-oxazol]-2′-amine], under setting [1], the pEC50 was 4.00 to 6.00.

One may read the EC50 as the concentration at which the effect is half-maximal. Low readings indicate higher potency in that assay, high ones lower potency in that assay. With `Clc1ccc2nc(NC3=NC[C@@]4(C[N@@]5CC[C@@H]4C5)O3)sc2n1` (relative stereo) [Example 3, (3R*,4R*)—N-(5-Chlorothiazolo[5,4-b]pyridin-2-yl)-4′H-1-azaspiro[bicyclo[2.2.1]heptane-3,5′-oxazol]-2′-amine], the concentration for a half-maximal effect (EC50) runs as follows: under setting [3], 91 nM; under setting [4], 100 to 1000 nM.

Under setting [4], `Fc1ccc2nc(NC3=NC[C@@]4(C[N@@]5CC[C@@H]4C5)O3)sc2n1` (relative stereo) [Example 4, (3R*,4R*)—N-(5-Fluorothiazolo[5,4-b]pyridin-2-yl)-4′H-1-azaspiro[bicyclo[2.2.1]heptane-3,5′-oxazol]-2′-amine] displayed a half-maximal effective concentration (EC50) of 100 to 1000 nM.

For `COc1ccc2nc(NC3=NC[C@@]4(C[N@@]5CC[C@@H]4C5)O3)sc2n1` (relative stereo) [Example 5, (3R*,4R*)—N-(5-Methoxythiazolo[5,4-b]pyridin-2-yl)-4′H-1-azaspiro[bicyclo[2.2.1]heptane-3,5′-oxazol]-2′-amine], the EC50 runs as follows: under setting [3], 311 nM; under setting [4], 1000 to 100000 nM.

On to `Clc1cnc(NC2=NC[C@@]3(C[N@@]4CC[C@@H]3C4)O2)c(Cl)c1` (relative stereo) [Example 6, (3R*,4R*)—N-(3,5-Dichloropyridin-2-yl)-4′H-1-azaspiro[bicyclo[2.2.1]heptane-3,5′-oxazol]-2′-amine], for which the half-maximal effective concentration (EC50) was 155 nM under setting [3] and 100 to 1000 nM under setting [4].

Under setting [4], `c1ccc2cc(NC3=NC[C@@]4(C[N@@]5CC[C@@H]4C5)O3)ncc2c1` (relative stereo) [Example 7, (3R*,4R*)—N-(Isoquinolin-3-yl)-4′H-1-azaspiro[bicyclo[2.2.1]heptane-3,5′-oxazol]-2′-amine] showed a half-maximal effective concentration (EC50) of less than 100 nM.

In the case of `c1cnc2sc(NC3=NC[C@@]4(C[N@@]5CC[C@@H]4C5)O3)nc2c1` (relative stereo) [Example 8, (3R*,4R*)—N-(Thiazolo[5,4-b]pyridin-2-yl)-4′H-1-azaspiro[bicyclo[2.2.1]heptane-3,5′-oxazol]-2′-amine], the EC50 under setting [4] was in the range of 100 to 1000 nM.

As for `Cc1cccc(-c2cnc(NC3=NC[C@@]4(C[N@@]5CC[C@@H]4C5)O3)nc2)c1` (relative stereo) [Example 9, (3R*,4R*)—N-(5-m-Tolylpyrimidin-2-yl)-4′H-1-azaspiro[bicyclo[2.2.1]heptane-3,5′-oxazol]-2′-amine], the pEC50 is 4.00 to 6.00 under setting [1] and 6.31 under setting [2].

`COc1ccc(NC2=NC[C@@]3(C[N@@]4CC[C@@H]3C4)O2)nc1` (relative stereo) [Example 10, (3R*,4R*)—N-(5-Methoxypyridin-2-yl)-4′H-1-azaspiro[bicyclo[2.2.1]heptane-3,5′-oxazol]-2′-amine] displayed an EC50 under setting [4] of 100 to 1000 nM.

Take `c1ccc2cc(NC3=NC[C@@]4(C[N@]5CC[C@H]4C5)O3)ncc2c1` (relative stereo) [Example 16, (3R*,4S*)—N-(Isoquinolin-3-yl)-4′H-1-azaspiro[bicyclo[2.2.1]heptane-3,5′-oxazol]-2′-amine]: the EC50 is 33 nM under setting [3] and less than 100 nM under setting [4].

Turning to `c1cnc2sc(NC3=NC[C@@]4(C[N@]5CC[C@H]4C5)O3)nc2c1` (relative stereo) [Example 17, (3R*,4S*)—N-(Thiazolo[5,4-b]pyridin-2-yl)-4′H-1-azaspiro[bicyclo[2.2.1]heptane-3,5′-oxazol]-2′-amine], the EC50 under setting [4] was less than 100 nM.

Under setting [4], `c1ccc2cc(NC3=NCC4(CN5CCC4C5)O3)ncc2c1` (single isomer, unassigned) [Example 7a] yielded an EC50 of less than 100 nM.
